The values that follow are results of earlier work, collected in patent US8617560B2, “Peptides for vaccination against human CMV” (priority 1999, dated 2013).

The subject of the series is cytomegaloviruses. The note with it: background statement, Lutz Schneider 1991.

For `O=C(O)P(=O)(O)O` [Foscarnet], the effect on cytomegaloviruses result was “virostatic effect”.
